Measurements taken from BindingDB's records for doi:10.1016/j.bmcl.2005.08.057 (Novartis Institutes For Biomedical Research, 2005).

Target: C-C chemokine receptor type 1 (Rattus norvegicus)
Assay: Antagonistic activity at rat CCR1 in CHO-K1 cells

Row | IC50 [nM] | Structure (SMILES)
1 | 1500 | CC(=O)Nc1cc2ccccc2cc1/C=C/C(=O)N1CCN(Cc2ccc(F)cc2)C[C@H]1C [(R)-N-(3-(3-(4-(4-fluorobenzyl)-2-methylpiperazin-1-yl)-3-oxoprop-1-enyl)naphthalen-2-yl)acetamide]
2 | 300 | CC(=O)Nc1cc2ncccc2cc1/C=C/C(=O)N1CCN(Cc2ccc(F)cc2)C[C@H]1C [(R)-N-(6-(3-(4-(4-fluorobenzyl)-2-methylpiperazin-1-yl)-3-oxoprop-1-enyl)quinolin-7-yl)acetamide]
3 | 1 | COc1cc(/C=C/C(=O)N2C3CCC2CN(Cc2ccc(F)cc2)C3)c(NC(C)=O)cc1Cl [N-(2-(3-(3-(4-fluorobenzyl)-3,8-diaza-bicyclo[3.2.1]octan-8-yl)-3-oxoprop-1-enyl)-5-chloro-4-methoxyphenyl)acetamide]
4 | 6 | CC(=O)Nc1cc2ncccc2cc1/C=C/C(=O)N1C2CCC1CN(Cc1ccc(F)cc1)C2 [N-(6-(3-(3-(4-fluorobenzyl)-3,8-diaza-bicyclo[3.2.1]octan-8-yl)-3-oxoprop-1-enyl)quinolin-7-yl)acetamide]

Row | Structure (SMILES) | IC50 [nM]
5 | CN(C)CC(=O)Nc1cc(Cl)ccc1/C=C/C(=O)N1C2CCC1CN(Cc1ccc(F)cc1)C2 [N-(2-(3-(3-(4-fluorobenzyl)-3,8-diaza-bicyclo[3.2.1]octan-8-yl)-3-oxoprop-1-enyl)-5-chlorophenyl)-2-(dimethylamino)acetamide] | 10

Target: not listed separately
Assay: Inhibitory effect on transwell chemotaxis induced by 1 nM MIP-1alpha in mouse pre-B cells transfected with human CCR1

Row | IC50 [nM] | Structure (SMILES)
6 | 7.5 | COc1cc(/C=C/C(=O)N2C3CCC2CN(Cc2ccc(F)cc2)C3)c(NC(C)=O)cc1Cl [N-(2-(3-(3-(4-fluorobenzyl)-3,8-diaza-bicyclo[3.2.1]octan-8-yl)-3-oxoprop-1-enyl)-5-chloro-4-methoxyphenyl)acetamide]
